Experimental data reported in patent US12274686B2, “Specialized pro-resolving mediators (SPMs) as melanocyte growth promoter and pro-survival factors and uses thereof” (THE UNIVERSITY OF BRITISH COLUMBIA, priority 2021, dated 2025).

How the values were obtained:
vitiligo patches = experiment: Topical treatment of vitiligo patches refractory to topical anti-inflammatory therapies (single subject); format: in vivo, human; conditions: for change in the size of the white areas: mometasone fumarate 0.1% cream BID (abdominal macule), clobetasol 0.05% cream OD (two patches right hand), 12 months
Experimental: Topical maresin 1 was tested on a person with a 5 year and 3 month history of developing two white patches on the dorsal right hand and one white macule on the right mid abdomen. […] There were no signs of inflammation such as redness, or presence of scales. There were no symptoms such as itchiness or pain. […] On examination, the subject appeared to be well. Complete skin examination was performed. The entire skin appeared to be normal aside from three lesions of depigmentation: (1) a 1.5×1.2 cm white patch on the mid right abdomen; (2) a 1.3×1.0 cm white patch on the dorsum of right third metacarpal head; and (3) a 1.0×0.8 cm sized white macule on the dorsum of right 4th metacarpal head.

[1] = tested on: primary human epidermal melanocytes; experiment: Melanocyte survival assay in vitro (growth factor supplement withdrawn), CellTiter-Blue viability; format: cell-based; conditions: for ability to protect melanocytes: physiological distress
Experimental: Human neonatal epidermal melanocytes (HEMn-DP) were purchased from ThermoFisher Scientific™ (C-202-5C). Melanocytes were cultured in full growth medium (Medium 254 supplemented with Human Melanocyte Growth Supplement, both purchased from ThermoFisher Scientific™. Cells were expanded and passaged 3 times before conducting the assay. 4×10^3 melanocytes per well were seeded into 96 well plate and allowed to recover for 4 hours before the treatment was added for each condition in 100 μl final volume. Cells were treated and kept in 37° C., 5% CO2 for 3 days. Viability assay was conducted using CellTiter-Blue Cell Viability Assay Kit™ (Promega™, G8080) and signal was measured using GlowMax™ plate reader (Promega™) after 4 hours at 37° C., 5% CO2. Merasin 1 (Cayman™) was diluted into 1 μg/ml using PBS and added to the culture medium at concentrations ranging from 0 to 1 μg/ml. For survival assays, the procedure was essentially the same as proliferation assay except that melanocytes were kept in M254 medium without human melanocyte growth supplement. The assays were conducted in triplicates.

B6 mouse canities model = experiment: B6 mouse model of canities (spontaneous hair greying) and aging-associated weight gain; format: in vivo, C57BL/J6 mice; conditions: 800 ng maresin 1 IP three times a week
Description: To observe aging-associated spontaneous hair greying (canities), C57BL/J6 mice aged 8 weeks were purchased from JAX Labs™ and kept in standard conditions for 8 weeks. The fur color as well as overall appearance and behaviors were monitored daily by visual inspection and by photography. By 6-8 weeks, about 20-40% of the mice would develop spontaneous canities. At the end of observation, central venous blood was collected and used for ELISA analysis using maresin 1 ELISA kit (Caymen Chemicals™) following the manufacturers' recommended protocol with purified maresin 1 serving as the chemical standard.
C57BL/J6 mice from The Jackson Laboratory™, 8 weeks of age were divided into two groups that received intraperitoneal injections of maresin 1 (800 ng in 100 μl saline) or saline alone three times a week for 6 weeks. […] At the end of the experiment, the mice were photographed and weighed.

[2] = tested on: skin resident M2 macrophages; experiment: Skin resident M1 (CD80+) / M2 (CD163+) macrophages by flow cytometry in B6 mice with or without maresin 1; format: in vivo, C57BL/J6 mice
Experimental: For isolation of macrophages from murine skin: 1 cm×1 cm sized skin samples were cut into small pieces, placed in a solution of PBS containing 1 mg/ml dispase (Roche™) and incubated for 1 hour at 37° C. The samples were then transferred into RPMI containing 1 mg/ml Collagenase IV and 0.1 mg/ml DNAse (Sigma Aldrich™) and incubated for 90 minutes at 37° C. Single cell suspension was prepared by passing through 100 μm strainer. Cells were washed and stained in PBS without Ca^2+ and Mg^2+ supplemented with 1% heat-inactivated FCS. Cell surface staining panel included anti-mouse CD163-BV421™, CD80-Alexa fluor 647™, and CD11b-Percp Cy5.5™ (Biolegend™) for 30 minutes at 4° C. Cells were washed with PBS and analyzed with LSRII™ cell sorter (BD Biosciences™).
Eight week old female C57BL/J6 mice were ordered from The Jackson Laboratory™, and fed a standard diet of Animal Care Facility of Vancouver Coastal Health Research institute (4 mice/cage). For induction of vitiligo, mice were immunized by intradermal injections (ID, starting at Day 0) at the left hock, and repeated at 2-week, using the method described by S. You et al. that efficiently induces melanocyte specific CD8+ T cell responses^(53). […] Immunization response score was recorded at 48 hours after the first immunization by evaluating the redness and swelling (0=none, 1=mild, 2=moderate, 3=severe). […]

B6 mouse Vitiligo model = experiment: B6 mouse model of vitiligo with TRP2 immunization; format: in vivo, C57BL/J6 mice
Description: ([…], Deming Regression). * p<0.05 (two tailed t test).
Eight week old female C57BL/J6 mice were ordered from The Jackson Laboratory™, and fed a standard diet of Animal Care Facility of Vancouver Coastal Health Research institute (4 mice/cage). For induction of vitiligo, mice were immunized by intradermal injections (ID, starting at Day 0) at the left hock, and repeated at 2-week, using the method described by S. You et al. that efficiently induces melanocyte specific CD8+ T cell responses^(53). The immunogen consisted of TRP2-180 (50 μg) peptide mixed with LPS (5 μg) and CpG ODN 1826 (5 μg) in 50 μL of PBS solution per mouse per injection. Immunization response score was recorded at 48 hours after the first immunization by evaluating the redness and swelling (0=none, 1=mild, 2=moderate, 3=severe). For assessing macrophage M1 and M2 populations, the TRP-immunized and non-immunized mice were anaesthetized 48 hours after immunization for skin sampling at the immunization site and used for cell isolation as described above.
For assessing the effects of maresin 1 treatment, C57BL/J6 mice were randomly assigned to the sham injection control group (200 μl saline IP, n=20) and the Maresin 1 injection group (800 ng in 200 μl saline IP, n=20). […] Mice were monitored 5 times per week and evaluated using a Depigmentation Area Scoring Template (0-5) (FIG. 5C). […]

[3] = cultured human epidermal melanocytes

**Q.** With `C[C@H]1C[C@H]2[C@@H]3CCC4=CC(=O)C=C[C@]4(C)[C@@]3(F)[C@@H](O)C[C@]2(C)[C@@]1(O)C(=O)CCl` [clobetasol, reference compound] as the compound, how does the “change in the size of the white areas” value (vitiligo patches) read?
**A.** did not notice any change

**Q.** What does the source list for `CCCCC[C@H](O)/C=C/C=C\C=C\C=C\[C@@H](O)[C@@H](O)CCCC(=O)O` [lipoxin A4, reference compound]?
**A.** pro-survival effects on the melanocytes in vitro ([1]; SPMs 0 to 300 ng/ml, cultured human epidermal melanocytes): significantly decreased melanocyte survival; ability to protect melanocytes [1, 3]: accelerated melanocyte depletion

**Q.** Which “ability to protect melanocytes” value [1, 3] does the source give for `CCCCC[C@@H](O)[C@H](O)/C=C/C=C/C=C\C=C\[C@@H](O)CCCC(=O)O` [lipoxin B4, 5S,14R,15S-trihydroxy-6E,8Z,10E,12E-eicosatetraenoic acid] here?
**A.** show ability to protect melanocytes

**Q.** How did the repigmentation (vitiligo patches; 0.01% maresin 1 in ethanol twice daily, by the end of three months) turn out when `CC/C=C\C/C=C\C[C@H](O)\C=C/C=C/C=C/[C@H](O)C/C=C\CCC(=O)O` [maresin 1, 7R, 14S-dihydroxy-4Z, 8E, 10E, 12Z, 16Z, 19Z-docosahexaenoic acid] was run?
**A.** significant repigmentation

**Q.** What about the “decrease of lesion area, third lesion” value (vitiligo patches; 0.01% maresin 1 in ethanol twice daily, three months, 1.0×0.8 cm macule right 4th metacarpal head) of the same compound?
**A.** 11.1%

**Q.** And the “decrease of lesion area, second lesion” value (vitiligo patches; 0.01% maresin 1 in ethanol twice daily, three months, 1.3×1.0 cm patch right third metacarpal head)?
**A.** 10.5%

**Q.** And the “decrease of lesion area, first lesion” value (vitiligo patches; 0.01% maresin 1 in ethanol twice daily, three months, 1.5×1.2 cm patch mid right abdomen)?
**A.** 13.6%

**Q.** And the “adverse events such as irritation, itchiness or redness” value (vitiligo patches; 0.01% maresin 1 in ethanol, topical twice daily)?
**A.** did no notice any adverse events

**Q.** What about the “decrease of the areas of the three depigmented lesions (overall)” value (vitiligo patches; ethanol solution containing 0.01% maresin 1 twice daily, three months) of the same compound?
**A.** 11.7%

**Q.** And the canities development (B6 mouse canities model; saline control 15% by 15 weeks of age, p<0.0125 Log Rank)?
**A.** completely blocked

**Q.** And the “aging associated weight gain” value (B6 mouse canities model; saline control 17.7%, p=0.0423)?
**A.** 14.2%

**Q.** What about the “post-immunization M2/M1 ratio at the TRP2 immunization site” value ([2]; maresin 1 800 ng/mouse IP pretreatment, skin 48 hours after TRP2 immunization, CD163+/CD80+ cells) of the same compound?
**A.** restoring the post-immunization M2/M1 ratio to a level above the pre-immunization state

**Q.** What about the “M2/M1 ratio in the skin of B6 mice” value ([2]; maresin 1 treatment, increase from 0.44) of the same compound?
**A.** 5.34

**Q.** What about the “ability to protect melanocytes” value [1, 3] of the same compound?
**A.** show ability to protect melanocytes

**Q.** And the “melanocyte depletion (surviving melanocytes) after growth factor supplement withdrawal” value ([1]; maresin 1 10 to 300 ng/ml, three days, p<0.01)?
**A.** significant reduction of melanocyte depletion

**Q.** And the “melanocyte depletion caused by growth factor withdrawal” value ([1]; three days in culture, no growth factor supplement)?
**A.** markedly reducing melanocyte depletion

**Q.** What about the “vitiligo development (average depigmentation score at immunization site)” value (B6 mouse Vitiligo model; maresin 1 800 ng/mouse IP three times per week for 8 weeks vs saline (sham)) of the same compound?
**A.** significant reduction of vitiligo development

**Q.** What about the “immunization response (peak score, erythema + edema)” value (B6 mouse Vitiligo model; maresin 1 800 ng/mouse IP, 48 hours after TRP2 immunization, vs saline) of the same compound?
**A.** significantly reduced the immunization response

**Q.** For `CC/C=C\C/C=C\C[C@H](O)[C@H](O)/C=C/C=C/C=C\C/C=C\CCC(=O)O` [maresin 2, 13R,14S-dihydroxy-4Z,7Z,9E,11E,16Z,19Z-docosahexaenoic acid], which “ability to protect melanocytes” value [1, 3] is on record?
**A.** show ability to protect melanocytes

**Q.** `CC/C=C\C[C@H](O)\C=C/C=C/C=C/[C@H](O)C/C=C\C/C=C\CCC(=O)O` [protectin D1, 10R,17S-dihydroxy-4Z,7Z,11E,13E,15Z,19Z-docosahexaenoic acid] was tested. Which “ability to protect melanocytes” value [1, 3] did it give?
**A.** show ability to protect melanocytes

**Q.** `CC/C=C\C[C@H](O)[C@H](O)/C=C/C=C/C=C\C=C\[C@@H](O)C/C=C\CCC(=O)O` [resolvin D2, 7S,16R,17S-trihydroxy-4Z,8E,10Z,12E,14E,19Z-docosahexaenoic acid] was tested. Which “ability to protect melanocytes” value [1, 3] did it give?
**A.** show ability to protect melanocytes

**Q.** Which “ability to protect melanocytes” value [1, 3] does the source give for `CC[C@@H](O)/C=C/C=C\C[C@@H](O)/C=C/C=C/C=C\[C@@H](O)CCCC(=O)O` [resolvin E1, 5S,12R,18R-trihydroxy-6Z,8E,10E,14Z,16E-eicosapentaenoic acid] here?
**A.** show ability to protect melanocytes

**Q.** Which “change in the size of the white areas” value (vitiligo patches) does the source give for “mometasone fumarate [reference compound]” here?
**A.** did not notice any change
